Patent US10266497B2 (ABIDE THERAPEUTICS, INC., priority 2017, dated 2019)
pIC50: −log10 of the molar value.

How the values were obtained:
FAAH [1] = biological target: T1, FAAH (Homo sapiens, UniProt O00519); assay: In vitro competitive activity-based protein profiling, FAAH, human; conditions: for inhibition at 1 µM: read-out: FAAH % inh. 1 μM (human)
T1 sequence (O00519 1-579): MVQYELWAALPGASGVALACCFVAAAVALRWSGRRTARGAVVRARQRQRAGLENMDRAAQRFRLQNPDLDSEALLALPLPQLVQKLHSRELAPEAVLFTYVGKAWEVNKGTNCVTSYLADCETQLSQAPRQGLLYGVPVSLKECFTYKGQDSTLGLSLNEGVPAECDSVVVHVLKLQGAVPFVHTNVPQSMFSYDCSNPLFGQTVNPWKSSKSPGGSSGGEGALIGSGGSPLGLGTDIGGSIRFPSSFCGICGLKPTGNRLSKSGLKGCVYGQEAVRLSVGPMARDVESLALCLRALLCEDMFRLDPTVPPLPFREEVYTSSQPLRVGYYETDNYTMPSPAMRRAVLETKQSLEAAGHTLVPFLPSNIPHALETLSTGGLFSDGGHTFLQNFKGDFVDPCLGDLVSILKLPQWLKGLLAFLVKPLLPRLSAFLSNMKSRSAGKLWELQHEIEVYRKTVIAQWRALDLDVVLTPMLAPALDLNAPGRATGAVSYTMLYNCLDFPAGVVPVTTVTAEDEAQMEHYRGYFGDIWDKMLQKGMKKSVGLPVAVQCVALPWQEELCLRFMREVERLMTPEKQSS

MAGL [2] = biological target: T2, MAGL (Homo sapiens, UniProt Q99685); assay: In vitro competitive activity-based protein profiling, MAGL, human; conditions: read-out: MAGL % inh. 1 μM (human)
T2 sequence (Q99685 1-303): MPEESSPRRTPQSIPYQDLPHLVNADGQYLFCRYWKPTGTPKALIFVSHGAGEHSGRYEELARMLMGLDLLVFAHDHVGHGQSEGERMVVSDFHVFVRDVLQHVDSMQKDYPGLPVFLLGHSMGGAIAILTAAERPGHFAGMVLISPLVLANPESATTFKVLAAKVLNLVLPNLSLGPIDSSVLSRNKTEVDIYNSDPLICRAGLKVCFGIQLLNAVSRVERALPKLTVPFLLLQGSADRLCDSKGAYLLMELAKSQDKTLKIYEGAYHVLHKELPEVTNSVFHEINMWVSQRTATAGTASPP

MAGL [3] = biological target: T3, MAGL (Mus musculus, UniProt O35678); assay: Mouse brain proteomes from inhibitor treated mice (oral gavage, sacrificed 4 h after administration); type: in vivo; parameters: mouse brain membrane fraction for mouse assays; from tissue; host or cells: mouse brain (membrane fraction in vitro; brain proteomes of treated C57Bl/6J mice in vivo); conditions: 5 mg/kg oral gavage, brain proteome 4 h after administration, read-out: MAGL % inh. 5 mg/kg (mouse)
T3 sequence (O35678 1-303): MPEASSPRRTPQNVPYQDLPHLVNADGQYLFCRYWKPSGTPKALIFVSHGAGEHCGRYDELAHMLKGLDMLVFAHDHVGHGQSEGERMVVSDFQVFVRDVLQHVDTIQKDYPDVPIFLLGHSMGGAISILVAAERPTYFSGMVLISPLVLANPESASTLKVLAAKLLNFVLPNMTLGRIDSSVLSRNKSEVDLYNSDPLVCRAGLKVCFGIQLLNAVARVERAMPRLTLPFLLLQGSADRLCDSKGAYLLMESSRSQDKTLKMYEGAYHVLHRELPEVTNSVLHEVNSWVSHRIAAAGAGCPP

MAGL [4] = biological target: T3, MAGL; assay: In vitro competitive activity-based protein profiling, MAGL, mouse; conditions: read-out: MAGL % inh. 1 μM (mouse)
FAAH [5] = biological target: T4, FAAH (Mus musculus, UniProt O08914); assay: Mouse brain proteomes from inhibitor treated mice (oral gavage, sacrificed 4 h after administration), FAAH; type: in vivo; parameters: mouse brain membrane fraction for mouse assays; from tissue; host or cells: mouse brain (membrane fraction in vitro; brain proteomes of treated C57Bl/6J mice in vivo); conditions: 5 mg/kg oral gavage, brain proteome 4 h after administration, read-out: FAAH % inh. 5 mg/kg (mouse)
T4 sequence (O08914 1-579): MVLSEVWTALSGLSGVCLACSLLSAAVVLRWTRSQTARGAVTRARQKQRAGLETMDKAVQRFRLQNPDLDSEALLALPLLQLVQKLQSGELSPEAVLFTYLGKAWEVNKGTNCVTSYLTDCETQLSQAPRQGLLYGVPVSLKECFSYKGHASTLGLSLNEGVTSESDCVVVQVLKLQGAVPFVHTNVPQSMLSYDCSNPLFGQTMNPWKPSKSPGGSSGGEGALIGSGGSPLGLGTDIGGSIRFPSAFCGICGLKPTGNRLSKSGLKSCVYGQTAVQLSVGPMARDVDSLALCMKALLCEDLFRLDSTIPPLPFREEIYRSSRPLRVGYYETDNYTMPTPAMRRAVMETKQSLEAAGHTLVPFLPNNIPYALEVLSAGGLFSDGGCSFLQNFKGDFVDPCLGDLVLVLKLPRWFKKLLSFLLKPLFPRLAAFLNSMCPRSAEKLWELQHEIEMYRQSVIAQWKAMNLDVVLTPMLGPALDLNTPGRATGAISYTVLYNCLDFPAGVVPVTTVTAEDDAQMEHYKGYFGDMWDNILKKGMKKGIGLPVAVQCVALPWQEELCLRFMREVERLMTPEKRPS

FAAH [6] = biological target: T4, FAAH; assay: In vitro competitive activity-based protein profiling, FAAH, mouse; conditions: read-out: FAAH % inh. 1 μM (mouse)

SMILES	pIC50 (FAAH [1])	inhibition at 1 µM (FAAH [1])	inhibition at 1 µM (MAGL [2])	inhibition at 5 mg/kg (MAGL [3])	inhibition at 1 µM (MAGL [4])	inhibition at 5 mg/kg (FAAH [5])	inhibition at 1 µM (FAAH [6])
O=C(O)c1ccn(C(=O)N2CCC3(CCCN3Cc3ccc(C(F)(F)F)cc3N3CCCC3)CC2)n1 [Example 93, 1-(1-(2-(pyrrolidin-1-yl)-4-(trifluoromethyl)benzyl)-1,8-diazaspiro[4.5]decane-8-carbonyl)-1H-pyrazole-3-carboxylic acid]	5.00 to 6.00	0 to 25%	> 75%	0 to 25%	> 75%	0 to 25%	0 to 25%
O=C(O)c1ccn(C(=O)N2CCN(Cc3cccc(Oc4ccc(Cl)cc4)c3)CC2)n1 [Example 98, 1-(4-(3-(4-chlorophenoxy)benzyl)piperazine-1-carbonyl)-1H-pyrazole-3-carboxylic acid]	6.00 to 7.00	> 75%	> 75%	0 to 25%	> 75%	0 to 25%	> 75%
O=C(O)c1ccn(C(=O)N2CCN(Cc3ccc(Cl)cc3N3C4CCC3COC4)CC2)n1 [Example 105, 1-(4-(2-(3-oxa-8-azabicyclo[3.2.1]octan-8-yl)-4-chlorobenzyl)piper-azine-1-carbonyl)-1H-pyrazole-3-carboxylic acid]	–	0 to 25%	> 75%	0 to 25%	> 75%	0 to 25%	0 to 25%
O=C(O)c1ccn(C(=O)N2CCN(Cc3ccc(C(F)(F)F)cc3N3CC4COCC4C3)CC2)n1 (stereo not drawn) [Example 106, 1-(4-(2-(tetrahydro-1H-furo[3,4-c]pyrrol-5(3H)-yl)-4-(trifluoromethyl)benzyl)piperazine-1-carbonyl)-1H-pyrazole-3-carboxylic acid]	–	0 to 25%	> 75%	0 to 25%	> 75%	0 to 25%	0 to 25%
O=C(O)c1ccn(C(=O)N2CCN(Cc3ccc(Cl)cc3N3CCCC3)CC2)n1 [Example 107, 1-(4-(4-chloro-2-(pyrrolidin-1-yl)benzyl)piperazine-1-carbonyl)-1H-pyrazole-3-carboxylic acid]	–	0 to 25%	> 75%	0 to 25%	> 75%	0 to 25%	0 to 25%
O=C(O)c1ccn(C(=O)N2CCN(Cc3ccc(Cl)cc3N3CC4COCC4C3)CC2)n1 (stereo not drawn) [Example 111, 1-(4-(4-chloro-2-(tetrahydro-1H-furo[3,4-c]pyrrol-5(3H)-yl)benzyl)piperazine-1-carbonyl)-1H-pyrazole-3-carboxylic acid]	–	0 to 25%	> 75%	0 to 25%	> 75%	0 to 25%	0 to 25%
NC(=O)C1CCN(c2cc(C(F)(F)F)ccc2CN2CCN(C(=O)n3ccc(C(=O)O)n3)CC2)CC1 [Example 113, 1-(4-(2-(4-carbamoylpiperidin-1-yl)-4-(trifluoromethyl)benzyl)piperazine-1-carbonyl)-1H-pyrazole-3-carboxylic acid]	–	0 to 25%	> 75%	0 to 25%	> 75%	0 to 25%	0 to 25%

Further lines, results first:

pIC50 (FAAH [1])	inhibition at 1 µM (FAAH [1])	inhibition at 1 µM (MAGL [2])	inhibition at 5 mg/kg (MAGL [3])	inhibition at 1 µM (MAGL [4])	inhibition at 5 mg/kg (FAAH [5])	inhibition at 1 µM (FAAH [6])	SMILES
–	0 to 25%	> 75%	0 to 25%	> 75%	0 to 25%	0 to 25%	C[C@@H]1CCCN1c1cc(C(F)(F)F)ccc1CN1CCN(C(=O)n2ccc(C(=O)O)n2)CC1 [Example 95, (R)-1-(4-(2-(2-methylpyrrolidin-1-yl)-4-(trifluoromethyl)benzyl)piperazine-1-carbonyl)-1H-pyrazole-3-carboxylic acid]
5.00 to 6.00	0 to 25%	> 75%	0 to 25%	> 75%	0 to 25%	0 to 25%	O=C(O)c1ccn(C(=O)N2CCN(Cc3ccc(C(F)(F)F)cc3N3CCCCC3)CC2)n1 [Example 100, 1-(4-(2-(piperidin-1-yl)-4-(trifluoromethyl)benzyl)piperazine-1-carbonyl)-1H-pyrazole-3-carboxylic acid]
–	0 to 25%	> 75%	0 to 25%	> 75%	0 to 25%	0 to 25%	O=C(O)c1ccn(C(=O)N2CCN(Cc3ccc(C(F)(F)F)cc3N3CC[C@@H](F)C3)CC2)n1 [Example 101, (R)-1-(4-(2-(3-fluoropyrrolidin-1-yl)-4-(trifluoromethyl)benzyl)piperazine-1-carbonyl)-1H-pyrazole-3-carboxylic acid]
–	0 to 25%	> 75%	0 to 25%	> 75%	0 to 25%	0 to 25%	C[C@H]1CCCN1c1cc(C(F)(F)F)ccc1CN1CCN(C(=O)n2ccc(C(=O)O)n2)CC1 [Example 104, (S)-1-(4-(2-(2-methylpyrrolidin-1-yl)-4-(trifluoromethyl)benzyl)piperazine-1-carbonyl)-1H-pyrazole-3-carboxylic acid]
–	0 to 25%	> 75%	0 to 25%	> 75%	0 to 25%	0 to 25%	CC(C)(O)C1CCN(c2cc(C(F)(F)F)ccc2CN2CCN(C(=O)n3ccc(C(=O)O)n3)CC2)CC1 [Example 109, 1-(4-(2-(4-(2-hydroxypropan-2-yl)piperidin-1-yl)-4-(trifluoromethyl)benzyl)piperazine-1-carbonyl)-1H-pyrazole-3-carboxylic acid]
–	0 to 25%	> 75%	0 to 25%	> 75%	0 to 25%	0 to 25%	CC1CCC(C)N1c1cc(C(F)(F)F)ccc1CN1CCN(C(=O)n2ccc(C(=O)O)n2)CC1 (stereo not drawn) [Example 114, 1-(4-(2-(2,5-dimethylpyrrolidin-1-yl)-4-(trifluoromethyl)benzyl)piperazine-1-carbonyl)-1H-pyrazole-3-carboxylic acid]
